Assay results taken from ChEMBL document CHEMBL5726383, “Heteroaryls and uses thereof” (2017).

Biological target: Phosphatidylinositol 3-kinase catalytic subunit type 3 (Homo sapiens, UniProt Q8NEB9)
Assay: VPS34 Enzyme Assays: 100 nL compounds in DMSO are added to wells of a 384 well microtitre plate (Greiner 780076). At room temperature: 5 ul VPS34 reaction buffer (Invitrogen Assay Buffer Q (diluted 1 in 5 with nanopure water) plus 2 mM DTT and 2 mM MnCl2) containing ATP (20 uM, Promega) and 200 uM PI-PS substrate (Invitrogen PV5122) is added followed immediately by 5 ul VPS34 reaction buffer (as above) containing VPS34 (5 nM, Millennium Protein Sciences Group) and the mixture is incubated with shaking at room temperature for 1 hour. Then 5 ul VPS34 stop-detect mix (as per Invitrogen Adapta Assay kit (PV5009) instructions (contains kinase quench buffer, TR-FRET buffer, Adapta Eu anti-ADP antibody and Alexa Fluor 647 ADP tracer)) is added to quench the reaction. The plates are then incubated for 30 minutes at room temperature with shaking and then read on a BMG PheraStar Plus reader.

Chain of Phosphatidylinositol 3-kinase catalytic subunit type 3 (Q8NEB9 whole entry): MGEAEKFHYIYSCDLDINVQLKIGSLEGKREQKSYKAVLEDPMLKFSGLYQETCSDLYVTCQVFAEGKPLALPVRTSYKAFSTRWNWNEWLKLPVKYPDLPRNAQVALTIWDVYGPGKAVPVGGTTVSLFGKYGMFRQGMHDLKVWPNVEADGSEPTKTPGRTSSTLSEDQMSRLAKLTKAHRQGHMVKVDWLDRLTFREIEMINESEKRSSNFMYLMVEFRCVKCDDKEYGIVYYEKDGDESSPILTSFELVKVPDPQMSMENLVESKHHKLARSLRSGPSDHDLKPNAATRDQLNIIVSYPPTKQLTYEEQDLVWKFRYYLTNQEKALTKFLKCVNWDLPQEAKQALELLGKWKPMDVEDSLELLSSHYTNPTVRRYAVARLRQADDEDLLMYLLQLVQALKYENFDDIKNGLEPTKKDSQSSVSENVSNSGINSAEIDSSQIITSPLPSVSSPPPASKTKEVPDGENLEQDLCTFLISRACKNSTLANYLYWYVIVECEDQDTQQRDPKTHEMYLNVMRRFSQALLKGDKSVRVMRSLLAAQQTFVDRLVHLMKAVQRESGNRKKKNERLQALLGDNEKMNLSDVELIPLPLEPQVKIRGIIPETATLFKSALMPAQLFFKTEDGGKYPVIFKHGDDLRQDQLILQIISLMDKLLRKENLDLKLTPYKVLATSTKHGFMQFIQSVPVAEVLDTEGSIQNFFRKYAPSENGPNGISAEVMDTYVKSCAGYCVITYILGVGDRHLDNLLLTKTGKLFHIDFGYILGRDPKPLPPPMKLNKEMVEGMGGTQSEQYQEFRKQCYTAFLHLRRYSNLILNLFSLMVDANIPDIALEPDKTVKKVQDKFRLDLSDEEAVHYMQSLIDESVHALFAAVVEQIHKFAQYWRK

IC50: < 10 nM
Structure (SMILES): CC(=O)Nc1cc(-c2cnc(C)c(NS(=O)(=O)c3ccc(C)cc3Cl)c2)ccn1
